Assay results reported in patent publication US12048686B2, “Compositions and methods for activating NRF2-dependent gene expression” (The University of Chicago, priority 2018, dated 2024).

Assays:
KEAP1 [1] = assay: Western blot of KEAP1 / HMW-KEAP1 formation in treated cells (HEK293T FLAG-KEAP1, IMR32); assay type: cell-based, human
Method: FLAG-tagged Protein Expression and Western Blotting. Full-length, human PGK1 (NM_000291, Origene) transiently expressed from a pCMV6 entry vector with a C-terminal Myc-DDK tag; full-length, human KEAP1 (28023, Addgene) was transiently expressed from a pcDNA/FRT/TO plasmid with a C-terminal 3×FLAG tag. All references to FLAG-PGK1 or FLAG-KEAP1 represent the proteins in the aforementioned vectors, respectively. Transient protein expression was performed in confluent 10 cm plates of HEK293T cells by transfection of 1 μg plasmid with Lipofectamine 2000 (Invitrogen) according to manufacturer's protocol. For in situ compound or metabolite treatment experiments, compounds were added approximately 24 hours after transfection, and incubated for the indicated duration. For FLAG-KEAP1 western blotting and immunoprecipitation experiments, cells were harvested by scraping, pelleted by centrifugation, washed twice with PBS and lysed in 8 M urea, 50 mM NH4HCO3, phosphatase inhibitor cocktail (Sigma Aldrich), and EDTA-free complete protease inhibitor (Roche), pH 8.0, at 4° C. Lysate was sonicated (Fisher Scientific FB-505), insoluble debris cleared by centrifugation, and the supernatant was diluted into 4× Laemmli buffer containing 50 mM dithiothreitol (DTT) as a reducing agent. Samples were prepared for SDS-PAGE by heating to 95° C. for 5 minutes, cooled to room temperature, resolved on NuPAGE Novex 4-12% Bis-Tris Protein Gels (Invitrogen), and transferred onto nitrocellulose membranes by standard western blotting methods. Membranes were blocked in 2% BSA in TBS containing 0.1% tween-20 (TBST) and probed with primary and secondary antibodies. Primary antibodies used in this study include: anti-FLAG-M2 (1:1000, F1804, Sigma Aldrich), anti-KEAP1 (1:500, SC-15246, Santa Cruz), anti-HSPA1A (1:1000, 4872, Cell Signaling), anti-ACTB (1:1000, 4790, Cell Signaling), anti-GAPDH (1:1000, 2118S, Cell Signaling) and TUBG (1:1000, 5886, Cell Signaling). […]

KEAP1 [2] = molecular target: T1, KEAP1 (Homo sapiens, UniProt Q14145); assay: Targeted proteomic analysis of crosslinked KEAP1 peptides; assay type: cell-based; details: gel-isolated HMW-KEAP1 vs monomeric KEAP1
T1 construct: full-length, human KEAP1 (28023, Addgene) was transiently expressed from a pcDNA/FRT/TO plasmid with a C-terminal 3×FLAG tag; host or cells: HEK293T
Method: In-gel digestion of KEAP1 Targeted proteomic analyses of KEAP1 protein were performed by running anti-FLAG enriched HMW-KEAP1 and LMW-KEAP1 (from both CBR-470-1 or MGx treatments as above) on SDS-PAGE gels, and isolated gel pieces were digested in-gel with sequencing grade trypsin (Promega), as previously reported^35. Tryptic peptides from in-gel tryptic digestions were dissolved in 100 mM Tris-HCl, pH 8.0, with 2 mM of CaCl2), and further digested with mass spectrometry-grade chymotrypsin (Thermo Scientific) according to manufacturer's protocol. Chymotryptic digestion reactions were stopped by acidification, and desalted on Ziptip C18 tips.
Targeted proteomic analysis of crosslinked KEAP1 peptides. Double digested KEAP1 peptides from isolated HMW-KEAP1 and monomeric KEAP1 were analyzed by LC-MS/MS on an Easy-nLC 1000 ultra-high pressure LC system coupled to a Q Exactive HF orbitrap and Easy-Spray nanosource as indicated above. Candidate peptides were initially searched by manual inspection of chromatograms and MS1 spectra for m/z values of peptide candidates from predicted digestion sites, crosslink sites and differential presence in HMW- and monomeric KEAP1 from both CBR-470-1 and MGx treated samples. Extracted MS1 ions of the candidates were present in HMW-KEAP1 digests but not in LMW-KEAP1 digests. […]

T1 sequence (Q14145 whole entry): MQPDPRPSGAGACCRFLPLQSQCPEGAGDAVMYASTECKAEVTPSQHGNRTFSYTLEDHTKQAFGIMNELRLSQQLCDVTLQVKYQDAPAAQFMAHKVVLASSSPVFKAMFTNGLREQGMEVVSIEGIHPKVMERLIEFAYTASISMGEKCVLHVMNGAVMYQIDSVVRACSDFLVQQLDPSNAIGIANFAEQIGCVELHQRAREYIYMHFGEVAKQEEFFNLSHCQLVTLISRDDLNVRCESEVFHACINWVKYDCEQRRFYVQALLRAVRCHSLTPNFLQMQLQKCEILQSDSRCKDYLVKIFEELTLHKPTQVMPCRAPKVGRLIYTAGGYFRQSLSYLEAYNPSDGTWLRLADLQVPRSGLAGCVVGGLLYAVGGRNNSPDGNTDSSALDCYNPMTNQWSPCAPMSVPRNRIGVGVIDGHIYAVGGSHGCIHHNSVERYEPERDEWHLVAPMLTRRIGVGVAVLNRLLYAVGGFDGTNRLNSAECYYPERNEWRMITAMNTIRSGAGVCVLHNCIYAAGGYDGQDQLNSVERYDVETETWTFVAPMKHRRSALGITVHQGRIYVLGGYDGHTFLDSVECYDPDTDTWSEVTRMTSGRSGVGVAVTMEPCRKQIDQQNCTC

SMILES | KEAP1 levels and α-pgK immunoreactive bands (KEAP1 [1]; IMR32 cells, 30 minutes) | high molecular weight KEAP1 (HMW-KEAP1) band (KEAP1 [1]; Western blot of treated cells) | MICA crosslinked C151-R135 KEAP1 peptide (KEAP1 [2]) | formation of HMW-KEAP1 (KEAP1 [1]; treatment of cell lysates or live cells with metabolite)
CC(C)CN[C@H]1CS(=O)(=O)C[C@@H]1S(=O)(=O)c1ccc(Cl)cc1 [CBR-470-1] | did not result in altered KEAP1 levels, or any α-pgK immunoreactive bands | dose-dependent, high molecular weight KEAP1 (HMW-KEAP1) band | MICA crosslink between C151 and R135 was identified in isolated HMW-KEAP1 | –
CC(=O)C=O [MGx, methylglyoxal, reference compound] | – | – | MICA crosslink between C151 and R135 was identified in isolated HMW-KEAP1 | selective formation of HMW-KEAP1
